We go through one compound from PMC7206119, “RIP1 inhibition blocks inflammatory diseases but not tumor growth or metastases” (Cell Death and Differentiation, 2019).

Among the targets are CDK4 (Homo sapiens, UniProt P11802); FLT3-autoinhibited (Homo sapiens, UniProt P36888); TAOK3 (Homo sapiens, UniProt Q9H2K8); PIP5K1C (Homo sapiens, UniProt O60331); CDKL2 (Homo sapiens, UniProt Q92772); NEK11 (Homo sapiens, UniProt Q8NG66); CSNK1A1L (Homo sapiens, UniProt Q8N752); VRK2 (Homo sapiens, UniProt Q86Y07); PRKG1 (Homo sapiens, UniProt Q13976); BLK (Homo sapiens, UniProt P51451); CAMK1G (Homo sapiens, UniProt Q96NX5); CAMK2A (Homo sapiens, UniProt Q9UQM7); PIP5K1A (Homo sapiens, UniProt Q99755).

What all share (assay): biochemical
Holding throughout (parameters): DiscoverX kinase panel, active-site competition binding (KINOMEscan type), percent of control at one concentration
Holding throughout (details): competition binding, percent of control

The target in the next test is T1, MEK5 (Homo sapiens, UniProt Q13163).
T1 construct: gene MAP2K5

The next test addresses T2, PFTK1 (Homo sapiens, UniProt O94921).
T2 construct: gene CDK14

Another test deals with T3, MINK (Homo sapiens, UniProt Q8N4C8).
T3 construct: gene MINK1

The target of test [1] is T4, RPS6KA5(Kin.Dom.1-N-terminal) (Homo sapiens, UniProt O75582).
T4 construct: Kin.Dom.1-N-terminal

In the next test the target is T5, MST2 (Homo sapiens, UniProt Q13188).
T5 construct: gene STK3

Another test concerns the target T6, HPK1 (Homo sapiens, UniProt Q92918).
T6 construct: gene MAP4K1

Test [2] has as its target T7, ABL1(H396P)-phosphorylated (Homo sapiens, UniProt P00519, H396P).
T7 construct: phosphorylated

The target in another test is T8, PIP5K2B (Homo sapiens, UniProt P78356).
T8 construct: gene PIP4K2B
T8 sequence (P78356 whole entry): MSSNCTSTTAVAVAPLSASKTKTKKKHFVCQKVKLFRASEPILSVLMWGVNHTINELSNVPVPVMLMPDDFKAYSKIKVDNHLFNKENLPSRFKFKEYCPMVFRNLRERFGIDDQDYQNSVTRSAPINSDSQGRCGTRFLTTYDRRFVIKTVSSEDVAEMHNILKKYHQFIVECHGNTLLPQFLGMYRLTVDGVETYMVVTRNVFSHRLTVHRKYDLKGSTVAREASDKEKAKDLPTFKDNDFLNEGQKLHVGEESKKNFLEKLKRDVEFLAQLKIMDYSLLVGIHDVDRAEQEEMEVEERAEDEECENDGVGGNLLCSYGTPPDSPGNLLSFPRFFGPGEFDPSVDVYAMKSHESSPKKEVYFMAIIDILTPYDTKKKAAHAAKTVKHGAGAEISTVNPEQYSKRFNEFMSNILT

Sequence of FLT3-autoinhibited (P36888 whole entry): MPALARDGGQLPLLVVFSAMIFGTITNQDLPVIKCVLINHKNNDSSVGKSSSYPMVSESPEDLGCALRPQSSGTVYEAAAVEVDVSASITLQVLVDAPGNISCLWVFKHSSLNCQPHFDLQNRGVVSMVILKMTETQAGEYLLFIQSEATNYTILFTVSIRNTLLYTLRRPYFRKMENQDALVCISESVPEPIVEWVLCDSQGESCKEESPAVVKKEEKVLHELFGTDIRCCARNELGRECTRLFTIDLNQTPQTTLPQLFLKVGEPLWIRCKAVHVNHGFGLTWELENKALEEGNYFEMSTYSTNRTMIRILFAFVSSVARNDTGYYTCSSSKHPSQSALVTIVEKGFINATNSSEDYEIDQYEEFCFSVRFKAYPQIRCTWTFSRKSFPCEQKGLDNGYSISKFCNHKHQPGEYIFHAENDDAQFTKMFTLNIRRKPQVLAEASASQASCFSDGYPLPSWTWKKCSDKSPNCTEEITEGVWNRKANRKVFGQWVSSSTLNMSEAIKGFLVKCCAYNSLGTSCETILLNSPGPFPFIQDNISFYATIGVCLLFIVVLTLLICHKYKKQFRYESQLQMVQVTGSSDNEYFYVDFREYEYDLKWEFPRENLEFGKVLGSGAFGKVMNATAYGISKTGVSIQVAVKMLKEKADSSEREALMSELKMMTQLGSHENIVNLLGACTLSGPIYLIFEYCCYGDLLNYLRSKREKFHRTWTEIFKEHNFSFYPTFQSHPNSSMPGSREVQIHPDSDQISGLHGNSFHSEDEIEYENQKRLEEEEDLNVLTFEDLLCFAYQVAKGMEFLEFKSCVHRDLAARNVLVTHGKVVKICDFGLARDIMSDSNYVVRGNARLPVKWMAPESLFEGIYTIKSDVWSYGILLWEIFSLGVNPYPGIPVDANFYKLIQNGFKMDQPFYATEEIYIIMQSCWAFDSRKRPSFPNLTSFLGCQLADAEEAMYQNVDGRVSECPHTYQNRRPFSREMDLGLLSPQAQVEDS
T5 sequence (Q13188 whole entry): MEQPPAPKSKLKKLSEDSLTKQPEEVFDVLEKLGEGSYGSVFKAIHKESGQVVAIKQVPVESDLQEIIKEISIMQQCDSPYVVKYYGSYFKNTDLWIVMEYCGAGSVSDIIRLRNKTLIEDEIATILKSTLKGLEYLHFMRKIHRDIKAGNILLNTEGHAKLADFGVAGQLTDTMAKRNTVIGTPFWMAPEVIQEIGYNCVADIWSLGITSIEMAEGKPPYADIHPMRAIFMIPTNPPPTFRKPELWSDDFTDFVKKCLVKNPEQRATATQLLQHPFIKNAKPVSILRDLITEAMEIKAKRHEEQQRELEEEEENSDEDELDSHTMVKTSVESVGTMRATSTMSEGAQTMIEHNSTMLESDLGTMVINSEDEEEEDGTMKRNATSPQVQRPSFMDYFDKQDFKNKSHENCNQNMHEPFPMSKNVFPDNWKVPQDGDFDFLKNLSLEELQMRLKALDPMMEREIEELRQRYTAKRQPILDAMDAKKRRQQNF
Sequence of NEK11 (Q8NG66 whole entry): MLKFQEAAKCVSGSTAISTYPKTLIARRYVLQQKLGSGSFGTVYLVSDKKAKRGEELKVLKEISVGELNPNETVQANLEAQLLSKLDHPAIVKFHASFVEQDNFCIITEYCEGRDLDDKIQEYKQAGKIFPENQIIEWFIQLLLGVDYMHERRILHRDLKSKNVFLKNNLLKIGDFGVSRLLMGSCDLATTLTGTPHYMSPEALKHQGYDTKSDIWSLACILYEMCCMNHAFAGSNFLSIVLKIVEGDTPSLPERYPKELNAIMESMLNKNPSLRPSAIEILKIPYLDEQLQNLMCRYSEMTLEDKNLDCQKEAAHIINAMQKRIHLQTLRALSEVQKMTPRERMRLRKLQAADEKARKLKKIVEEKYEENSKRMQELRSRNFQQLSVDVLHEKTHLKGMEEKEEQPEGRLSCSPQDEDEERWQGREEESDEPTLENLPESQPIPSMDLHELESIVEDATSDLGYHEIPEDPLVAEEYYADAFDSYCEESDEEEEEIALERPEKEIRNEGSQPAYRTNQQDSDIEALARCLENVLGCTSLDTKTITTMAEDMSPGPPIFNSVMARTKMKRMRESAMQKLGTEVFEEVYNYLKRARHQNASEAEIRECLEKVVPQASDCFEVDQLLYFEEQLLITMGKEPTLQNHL
Sequence of CAMK2A (Q9UQM7 whole entry): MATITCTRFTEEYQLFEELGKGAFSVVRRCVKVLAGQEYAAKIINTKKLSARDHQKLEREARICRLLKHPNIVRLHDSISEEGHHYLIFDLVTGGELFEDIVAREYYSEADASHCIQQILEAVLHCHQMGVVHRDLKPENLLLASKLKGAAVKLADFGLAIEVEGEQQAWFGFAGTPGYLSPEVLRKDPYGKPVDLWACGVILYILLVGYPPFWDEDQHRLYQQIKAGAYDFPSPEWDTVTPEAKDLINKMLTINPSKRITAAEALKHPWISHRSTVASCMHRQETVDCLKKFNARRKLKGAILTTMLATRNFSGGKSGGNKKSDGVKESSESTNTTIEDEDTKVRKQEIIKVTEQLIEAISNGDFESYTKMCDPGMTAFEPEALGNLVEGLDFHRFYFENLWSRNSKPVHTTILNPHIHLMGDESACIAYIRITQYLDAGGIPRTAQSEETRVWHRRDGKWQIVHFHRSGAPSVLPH
Sequence of BLK (P51451 whole entry): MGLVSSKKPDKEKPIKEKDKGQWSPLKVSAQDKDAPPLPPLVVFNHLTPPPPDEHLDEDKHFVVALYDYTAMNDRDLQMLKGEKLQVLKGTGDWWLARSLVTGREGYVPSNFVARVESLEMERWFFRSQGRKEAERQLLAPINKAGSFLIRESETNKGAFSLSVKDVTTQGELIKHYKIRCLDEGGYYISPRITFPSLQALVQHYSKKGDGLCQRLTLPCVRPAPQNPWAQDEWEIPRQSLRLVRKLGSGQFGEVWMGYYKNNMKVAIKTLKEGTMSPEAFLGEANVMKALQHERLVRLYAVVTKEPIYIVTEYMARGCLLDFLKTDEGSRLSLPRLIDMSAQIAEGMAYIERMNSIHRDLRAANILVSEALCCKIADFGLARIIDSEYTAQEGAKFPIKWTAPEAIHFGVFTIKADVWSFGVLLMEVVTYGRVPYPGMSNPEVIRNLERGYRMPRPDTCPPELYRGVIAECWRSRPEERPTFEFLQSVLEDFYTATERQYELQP
Sequence of CSNK1A1L (Q8N752 whole entry): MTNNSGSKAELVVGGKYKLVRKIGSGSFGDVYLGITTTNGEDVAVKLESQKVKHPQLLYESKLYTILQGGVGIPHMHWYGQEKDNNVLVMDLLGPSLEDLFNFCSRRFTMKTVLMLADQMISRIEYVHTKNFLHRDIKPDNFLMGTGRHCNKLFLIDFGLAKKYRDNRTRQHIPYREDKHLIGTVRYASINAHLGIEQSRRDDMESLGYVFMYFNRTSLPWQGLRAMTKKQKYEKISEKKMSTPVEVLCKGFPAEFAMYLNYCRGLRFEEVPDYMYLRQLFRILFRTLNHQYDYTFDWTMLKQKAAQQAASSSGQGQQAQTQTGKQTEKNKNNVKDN
T4 sequence (O75582 whole entry): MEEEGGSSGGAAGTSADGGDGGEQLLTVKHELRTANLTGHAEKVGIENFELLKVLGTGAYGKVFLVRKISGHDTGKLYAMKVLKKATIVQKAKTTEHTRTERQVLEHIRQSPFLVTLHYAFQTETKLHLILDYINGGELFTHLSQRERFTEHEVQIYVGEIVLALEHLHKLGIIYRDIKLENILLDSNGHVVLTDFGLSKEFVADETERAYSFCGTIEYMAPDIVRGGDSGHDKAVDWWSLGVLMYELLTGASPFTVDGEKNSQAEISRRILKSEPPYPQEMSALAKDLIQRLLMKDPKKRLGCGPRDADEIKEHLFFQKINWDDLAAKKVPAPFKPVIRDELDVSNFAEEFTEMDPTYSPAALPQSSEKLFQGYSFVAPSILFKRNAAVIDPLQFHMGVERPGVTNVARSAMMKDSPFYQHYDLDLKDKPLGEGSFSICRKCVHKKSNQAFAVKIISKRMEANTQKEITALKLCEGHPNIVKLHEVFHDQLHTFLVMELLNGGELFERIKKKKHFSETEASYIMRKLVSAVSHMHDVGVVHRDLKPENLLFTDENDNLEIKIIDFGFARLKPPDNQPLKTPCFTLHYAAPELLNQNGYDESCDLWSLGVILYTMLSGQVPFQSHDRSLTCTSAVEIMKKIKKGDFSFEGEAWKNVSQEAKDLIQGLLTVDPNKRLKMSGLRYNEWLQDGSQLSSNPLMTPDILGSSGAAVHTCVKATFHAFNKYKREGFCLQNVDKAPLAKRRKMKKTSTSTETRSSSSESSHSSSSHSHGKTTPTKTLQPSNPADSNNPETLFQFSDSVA
Sequence of CDK4 (P11802 whole entry): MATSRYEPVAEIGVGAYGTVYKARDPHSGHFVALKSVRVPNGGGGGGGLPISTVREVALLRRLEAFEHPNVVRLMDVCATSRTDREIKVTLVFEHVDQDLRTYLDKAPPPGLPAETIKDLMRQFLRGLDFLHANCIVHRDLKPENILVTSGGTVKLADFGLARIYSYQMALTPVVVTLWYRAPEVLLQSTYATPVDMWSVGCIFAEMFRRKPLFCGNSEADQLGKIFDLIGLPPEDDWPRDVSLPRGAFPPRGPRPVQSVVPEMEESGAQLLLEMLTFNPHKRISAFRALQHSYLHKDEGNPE

As for `COc1cc2c(cn1)N(C)C(=O)[C@@H](NC(=O)c1nc3n(n1)[C@H](c1ccccc1)CC3)CC2` [GNE684, (S)-N-((S)-7-methoxy-1-methyl-2-oxo-2,3,4,5-tetrahydro-1H-pyrido[3,4-b]azepin-3-yl)-5-phenyl-6,7-dihydro-5H-pyrrolo[1,2-b][1,2,4]triazole-2-carboxamide], the remaining binding at 10 µM at CDK4 stood at 100%; on FLT3-autoinhibited, 100%; at TAOK3 it was 60%; on MEK5, 80%; on PIP5K1C, 100%; on PFTK1 it was 79%. The remaining binding at 10 µM at CDKL2 stood at 95%; on NEK11, 100%; at CSNK1A1L, 100%; at VRK2, 85%; on PRKG1, 81%; at MINK it was 100%. In addition, the remaining binding at 10 µM was determined as 84% in [1]; 100% on MST2; 98% at HPK1; 49% at BLK; 92% in test [2]; 100% on CAMK1G. For the same compound, the remaining binding at 10 µM at CAMK2A is 69%; at PIP5K1A, 99%; at PIP5K2B, 92%.
